PubChem BioAssay AID330 (DTP/NCI, 2004)
Where “and” joins values, the source holds several entries; their conditions need not be identical. Equal entries are not always repeated. Toxic doses and inconclusive results are not listed. Peptide text beside a SMILES is read from it. * marks the point of attachment. Cbz = O=C(OCc1ccccc1)*

System: P388 leukemia ip, CD2F1 mice, survival T/C
Experiment: NCI In Vivo Anticancer Drug Screen. Data for tumor model P388 Leukemia (intraperitoneal) in CD2F1 (CDF1) mice
Details: endpoint: median survival time, higher = longer survival
Method in brief: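 Mice carrying the transplanted tumor received test compound or vehicle. Survival was recorded in each group, and the value is the treated-group measurement divided by that of the vehicle-treated control group.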

[1] = dose: 100.0 mg/kg/injection, schedule: Q01DX001 (ip), vehicle: saline with Tween-80
[2] = dose: 200.0 mg/kg/injection, schedule: Q01DX001 (ip), vehicle: saline with Tween-80
[3] = dose: 50.0 mg/kg/injection, schedule: Q01DX009 (ip), vehicle: saline with Tween-80
[4] = dose: 100.0 mg/kg/injection, schedule: Q01DX009 (ip), vehicle: saline with Tween-80
[5] = dose: 60.0 mg/kg/injection, schedule: Q01DX005 (ip), vehicle: Klucel (hydroxypropylcellulose) (HPC)
[6] = dose: 120.0 mg/kg/injection, schedule: Q01DX005 (ip), vehicle: Klucel (hydroxypropylcellulose) (HPC)
[7] = dose: 240.0 mg/kg/injection, schedule: Q01DX005 (ip), vehicle: Klucel (hydroxypropylcellulose) (HPC)
[8] = dose: 60.0 mg/kg/injection, schedule: Q01DX005 (ip), vehicle: saline with Tween-80
[9] = dose: 120.0 mg/kg/injection, schedule: Q01DX005 (ip), vehicle: saline with Tween-80
[10] = dose: 240.0 mg/kg/injection, schedule: Q01DX005 (ip), vehicle: saline with Tween-80
[11] = dose: 50.0 mg/kg/injection, schedule: Q01DX009 (ip), vehicle: Klucel (hydroxypropylcellulose) (HPC)
[12] = dose: 100.0 mg/kg/injection, schedule: Q01DX009 (ip), vehicle: Klucel (hydroxypropylcellulose) (HPC)
[13] = dose: 100.0 mg/kg/injection, schedule: Q01DX001 (ip), vehicle: Klucel (hydroxypropylcellulose) (HPC)
[14] = dose: 200.0 mg/kg/injection, schedule: Q01DX001 (ip), vehicle: Klucel (hydroxypropylcellulose) (HPC)
[15] = dose: 400.0 mg/kg/injection, schedule: Q01DX001 (ip), vehicle: Klucel (hydroxypropylcellulose) (HPC)
[16] = dose: 200.0 mg/kg/injection, schedule: Q01DX009 (ip), vehicle: saline with Tween-80
[17] = dose: 100.0 mg/kg/injection, schedule: Q04DX003 (ip), vehicle: saline with Tween-80

SMILES: O=C(Cn1c(=O)cc(Nc2ccccc2)c2ccccc21)Nc1ccccc1
- T/C [1]: 94 % of control
- T/C [2]: 94 % of control
- T/C (dose: 400.0 mg/kg/injection, schedule: Q01DX001 (ip), vehicle: saline with Tween-80): 94 % of control

SMILES: Nc1nc(Nc2ccccc2)nc(SCc2ccccc2)n1
- T/C (dose: 25.0 mg/kg/injection, schedule: Q01DX009 (ip), vehicle: saline with Tween-80): 99 % of control
- T/C [3]: 90 % of control
- T/C [4]: 88 % of control

SMILES: O=C(O)c1cnc2cc3c(cc2c1Nc1cccc(C(F)(F)F)c1)OCO3
- T/C [5]: 99 % of control
- T/C [6]: 96 % of control
- T/C [7]: 96 % of control

SMILES: Cn1c(=O)[nH]c(Sc2ccccc2)c(C=O)c1=O
- T/C [1]: 104 % of control
- T/C [2]: 101 % of control

SMILES: CC(=O)CC(=O)CCC(=O)Nc1cccc([N+](=O)[O-])c1
- T/C [8]: 106 % of control
- T/C [9]: 100 % of control
- T/C [10]: 105 % of control

SMILES: CCOC(=O)/C(C#N)=C(O)\C(=C\c1ccc(Cl)cc1)NC(=O)c1ccc(NC(C)=O)cc1
- T/C [8]: 108 % of control
- T/C [9]: 97 % of control
- T/C [10]: 97 % of control

SMILES: COc1ccc2nc3cc(Cl)ccc3c(NCCCCCCNc3c4ccc(Cl)cc4nc4ccc(OC)nc34)c2n1
- T/C [11]: 93 % of control
- T/C [12]: 105 % of control

SMILES: O=C(C=Nc1ccc(Cl)c(Cl)c1)c1ccccc1
- T/C [11]: 100 % of control
- T/C [12]: 100 % of control
- T/C (dose: 200.0 mg/kg/injection, schedule: Q01DX009 (ip), vehicle: Klucel (hydroxypropylcellulose) (HPC)): 94 % of control

SMILES: O=C1OC(OC2OC(=O)C(Cl)=C2Cl)C(Cl)=C1Cl (configuration not stated)
- T/C (dose: 12.5 mg/kg/injection, schedule: Q01DX005 (ip), vehicle: saline with Tween-80): 104 % of control and 109 % of control
- T/C (dose: 25.0 mg/kg/injection, schedule: Q01DX005 (ip), vehicle: saline with Tween-80): 116 % of control and 117 % of control

SMILES: CCOC(=O)C12C=CC(=O)NC1(OC)OC(C)C2 (configuration not stated)
- T/C [13]: 90 % of control
- T/C [14]: 94 % of control
- T/C [15]: 93 % of control

SMILES: N#Cc1cc2ccccc2n(Cc2ccccc2)c1=O
- T/C (dose: 50.0 mg/kg/injection, schedule: Q01DX005 (ip), vehicle: Klucel (hydroxypropylcellulose) (HPC)): 101 % of control
- T/C (dose: 100.0 mg/kg/injection, schedule: Q01DX005 (ip), vehicle: Klucel (hydroxypropylcellulose) (HPC)): 109 % of control
- T/C (dose: 200.0 mg/kg/injection, schedule: Q01DX005 (ip), vehicle: Klucel (hydroxypropylcellulose) (HPC)): 100 % of control

SMILES: O=C(NC(=O)C(F)(F)F)Nc1ccc(Cl)cc1
- T/C [3]: 99 % of control
- T/C [4]: 105 % of control

SMILES: COc1cccc2c1C(=O)c1c(O)c3c(c(O)c1C2=O)CC(O)(C(=O)CO)CC3OC1CC2C(OC3COCC(C#N)N32)C(C)O1 (configuration not stated)
- T/C (dose: 0.5 mg/kg/injection, schedule: Q04DX003 (ip), vehicle: saline with Tween-80): 102 % of control and 120 % of control
- T/C (dose: 1.0 mg/kg/injection, schedule: Q04DX003 (ip), vehicle: saline with Tween-80): 116 % of control
- T/C (dose: 4.0 mg/kg/injection, schedule: Q04DX003 (ip), vehicle: saline with Tween-80): 113 % of control

SMILES: COC(=O)C1C(=O)CC2C(C(=O)OC)C(=O)CC12 (configuration not stated)
- T/C [3]: 99 % of control
- T/C [4]: 95 % of control
- T/C [16]: 98 % of control

SMILES: CB1N(c2ccccc2)N=NN1C(C)(C)C
- T/C (dose: 15.0 mg/kg/injection, schedule: Q01DX005 (ip), vehicle: Klucel (hydroxypropylcellulose) (HPC)): 97 % of control
- T/C (dose: 30.0 mg/kg/injection, schedule: Q01DX005 (ip), vehicle: Klucel (hydroxypropylcellulose) (HPC)): 102 % of control
- T/C [5]: 107 % of control
- T/C [6]: 110 % of control
- T/C [7]: 91 % of control

SMILES: CC(=O)CSc1ccc(Cl)cc1
- T/C [3]: 99 % of control
- T/C [4]: 102 % of control
- T/C [16]: 116 % of control

SMILES: CCC1C(=O)OCc2c1cc1n(c2=O)CCC1 (configuration not stated)
- T/C (dose: 50.0 mg/kg/injection, schedule: Q01DX001 (ip), vehicle: Klucel (hydroxypropylcellulose) (HPC)): 123 % of control
- T/C [13]: 106 % of control
- T/C [14]: 100 % of control
- T/C [15]: 108 % of control

SMILES: O=C(N/N=C/c1ccccc1O)c1cc2ccccc2cc1O
- T/C (dose: 7.5 mg/kg/injection, schedule: Q01DX005 (ip), vehicle: saline with Tween-80): 92 % of control
- T/C (dose: 15.0 mg/kg/injection, schedule: Q01DX005 (ip), vehicle: saline with Tween-80): 88 % of control

SMILES: COc1cc(/C=C2\SC(=S)N(CCCN3CCOCC3)C2=O)ccc1O
- T/C [3]: 91 % of control

SMILES: O=C(NC(Cc1ccc(O)cc1)C(=O)NC(CO)C(=O)O)OCc1ccccc1 (stereo not drawn) (Cbz-Tyr-Ser-OH; configuration not given here)
- T/C (dose: 50.0 mg/kg/injection, schedule: Q01DX005 (ip), vehicle: saline with Tween-80): 101 % of control
- T/C (dose: 100.0 mg/kg/injection, schedule: Q01DX005 (ip), vehicle: saline with Tween-80): 101 % of control
- T/C (dose: 200.0 mg/kg/injection, schedule: Q01DX005 (ip), vehicle: saline with Tween-80): 106 % of control

SMILES: O=C(NC(=O)C(F)(F)F)Nc1cccc(C(F)(F)F)c1
- T/C [3]: 114 % of control
- T/C [4]: 94 % of control
- T/C [16]: 94 % of control

SMILES: COC(=O)C1=C2Nc3ccccc3C23CCN2C4OC56C7CC4(CN5c4c(OC)cccc4C64CCN5CCC6OCCC6(C7)C54)C4OCCC4(C1)C23 (configuration not stated)
- T/C (dose: 100.0 mg/kg/injection, schedule: Q04DX002 (ip), vehicle: saline with Tween-80): 101 % of control
- T/C (dose: 200.0 mg/kg/injection, schedule: Q04DX002 (ip), vehicle: saline with Tween-80): 101 % of control
- T/C (dose: 400.0 mg/kg/injection, schedule: Q04DX002 (ip), vehicle: saline with Tween-80): 101 % of control

SMILES: CN1C(=O)C(=CN(C)c2ccccc2)C(=O)N(C)C1=O
- T/C (dose: 25.0 mg/kg/injection, schedule: Q04DX003 (ip), vehicle: saline with Tween-80): 111 % of control
- T/C (dose: 50.0 mg/kg/injection, schedule: Q04DX003 (ip), vehicle: saline with Tween-80): 112 % of control
- T/C [17]: 114 % of control and 96 % of control

SMILES: O=[N+]([O-])O.[Al]
- T/C (dose: 25.0 mg/kg/injection, schedule: Q01DX009 (ip), vehicle: saline): 100 % of control
- T/C (dose: 50.0 mg/kg/injection, schedule: Q01DX009 (ip), vehicle: saline): 91 % of control
- T/C (dose: 100.0 mg/kg/injection, schedule: Q01DX009 (ip), vehicle: saline): 86 % of control
- T/C (dose: 100.0 mg/kg/injection, schedule: Q04DX003 (ip), vehicle: saline): 90 % of control

SMILES: N/C(CC(=O)Nc1ccc(F)cc1)=N\O
- T/C [8]: 108 % of control
- T/C [9]: 102 % of control
- T/C [10]: 100 % of control

SMILES: COc1cc2c(cc1O)CC1c3c(cc(OC)c(O)c3C2)CCN1C (configuration not stated)
- T/C (dose: 12.5 mg/kg/injection, schedule: Q01DX001 (ip), vehicle: saline with Tween-80): 100 % of control
- T/C (dose: 25.0 mg/kg/injection, schedule: Q01DX001 (ip), vehicle: saline with Tween-80): 96 % of control
- T/C (dose: 50.0 mg/kg/injection, schedule: Q01DX001 (ip), vehicle: saline with Tween-80): 97 % of control
- T/C [1]: 95 % of control

SMILES: O=C(Nc1ccc([N+](=O)[O-])cc1)OCCI
- T/C [17]: 101 % of control
- T/C (dose: 200.0 mg/kg/injection, schedule: Q04DX003 (ip), vehicle: saline with Tween-80): 92 % of control
- T/C (dose: 400.0 mg/kg/injection, schedule: Q04DX003 (ip), vehicle: saline with Tween-80): 92 % of control

SMILES: CCCC(=O)OCc1cc(=O)n(C)c2c3c4c(cc12)c(C)cc(=O)n4CO3
- T/C (dose: 12.5 mg/kg/injection, schedule: Q01DX009 (ip), vehicle: other): 157 % of control
- T/C (dose: 25.0 mg/kg/injection, schedule: Q01DX009 (ip), vehicle: other): 151 % of control and 171 % of control
- T/C (dose: 50.0 mg/kg/injection, schedule: Q01DX009 (ip), vehicle: other): 163 % of control

SMILES: COC(=O)c1n[nH]c(C(C)C)c1N=NN(C)C
- T/C (dose: 6.25 mg/kg/injection, schedule: Q01DX009 (ip), vehicle: saline): 107 % of control and 113 % of control
- T/C (dose: 12.5 mg/kg/injection, schedule: Q01DX009 (ip), vehicle: saline): 116 % of control and 122 % of control

SMILES: OC1OCC(Cc2ccc3c(c2)OCO3)C1Cc1ccc2c(c1)OCO2 (configuration not stated)
- T/C (dose: 100.0 mg/kg/injection, schedule: Q04DX003 (ip), vehicle: other): 95 % of control
- T/C (dose: 200.0 mg/kg/injection, schedule: Q04DX003 (ip), vehicle: other): 90 % of control
- T/C (dose: 400.0 mg/kg/injection, schedule: Q04DX003 (ip), vehicle: other): 90 % of control
